In patent US20220332764A1, “T CELL EPITOPES OF HCMV AND USES OF THEREOF” (EBERHARD KARLS UNIVERSITÄT TÜBINGEN, priority 2019, published 2022):
Several values for one entry are separate records, joined by “and”; a condition that tells them apart may be missing. Equal entries are not always repeated. Where two headings read alike, the source gives them in different places.

Tests used:
[1] = tested on: CD8+ T cells of HLA-matched healthy donors; settings: for Tetramer-staining: after 12 day amplification
[2] = tested on: PBMCs of healthy HCMV-seropositive donors; test: IFNγ ELISpot after 12 day stimulation (memory T-cell response); type: cell-based, human; settings: for % Positive donors (after 12 days of stimulation): IFNγ ELISpot, HLA-matched seropositive donors; for ELISpot response rate (12 d stim.): 12-day amplification with IL-2 in vitro; for Positive donors as tested: positive / tested HLA-matched seropositive donors, positive: >10 spots/well and at least 3-fold negative control; for Binding to more than one HLA-I allotype: stimulated T cells of different donors harboring either of two well predicted alleles
Excerpt: (§1) PHA was used as positive control.

[3] = tested on: PBMCs of healthy HCMV-seropositive donors; test: ex vivo IFNγ ELISpot without prestimulation; type: cell-based, human; settings: for % Positive donors (ex vivo): IFNγ ELISpot ex vivo, donors previously tested positive; for ELISpot response rate (ex vivo): donors positively tested in ELISpots with 12d stimulation
Excerpt: as §1

[4] = tested on: CD8+ / CD4+ T cells of donor PBMCs; test: Intracellular cytokine staining (ICS; IFNγ, TNFα, CD107a); type: cell-based, human; settings: for Intracellular staining: responding T-cell subset; for Intracellular cytokine staining: responding T-cell subset after peptide stimulation
Excerpt: PHA was used as positive control. […] (Cytofix/Cytoperm, BD Biosciences).

HLA = settings: Table 2, preferred dominant epitopes

Row | Sequence | Tetramer-staining [1] | % Positive donors (after 12 days of stimulation) [2] | Positive donors as tested [2] | % Positive donors (ex vivo) [3] | Intracellular cytokine staining [4] | further results
1 | LPYPRGYTL (listed as Human cytomegalovirus) [SEQ ID NO: 99] | positive | 68.8% and 62.5% | 11/16 and 10/16 | 16.7% and 33.3% | CD8 | HLA restriction demonstrated by tetramer stainings [1]: B*08 and B*51 restriction; Tetramer staining ([1]; Tested HLA B*08:01): positive; Tetramer staining ([1]; Tested HLA B*51:01): positive; Response in mismatch ELISpots ([2]; B*08-/B*51− PBMC samples): showed responses; ELISpot response rate (12 d stim.) ([2]; Tested HLA B*08:01): 68.8; ELISpot response rate (12 d stim.) ([2]; Tested HLA B*51:01): 62.5; Binding to more than one HLA-I allotype [2]: potentially able to bind to more than one HLA-I allotype; ELISpot response rate (ex vivo) ([3]; Tested HLA B*08:01): 16.7; ELISpot response rate (ex vivo) ([3]; Tested HLA B*51:01): 33.3; Intracellular staining ([4]; Tested HLA B*08:01): CD8; Intracellular staining ([4]; Tested HLA B*51:01): CD8
2 | ALWDVALLEV (listed as Human cytomegalovirus) [SEQ ID NO: 2] | Positive | 71.4% | 10/14 | 25.0% | CD8 | Tetramer staining ([1]; Tested HLA A*02:01): positive; ELISpot response rate (12 d stim.) ([2]; Tested HLA A*02:01): 71.4; ELISpot response rate (ex vivo) ([3]; Tested HLA A*02:01): 25.0; Intracellular staining ([4]; Tested HLA A*02:01): CD8
3 | DEQVSKRSW (listed as Human cytomegalovirus) [SEQ ID NO: 42] | Positive | 45.8% | 11/24 | 12.5% | CD8 | –
4 | SENGNLQVTY (listed as Human cytomegalovirus) [SEQ ID NO: 40] | Positive | 83.9% | 26/31 | 62.5% | CD8 | Tetramer staining ([1]; Tested HLA B*44:02): positive; ELISpot response rate (12 d stim.) ([2]; Tested HLA B*44:02): 83.9; ELISpot response rate (ex vivo) ([3]; Tested HLA B*44:02): 62.5; Intracellular staining ([4]; Tested HLA B*44:02): CD8
5 | FPVEVRSHV (listed as Human cytomegalovirus) [SEQ ID NO: 88] | Positive | 65.2% | 15/23 | 0.0% | CD8 | Tetramer staining ([1]; Tested HLA B*51:01): positive; ELISpot response rate (12 d stim.) ([2]; Tested HLA B*51:01): 65.2; ELISpot response rate (ex vivo) ([3]; Tested HLA B*51:01): 0.0; Intracellular staining ([4]; Tested HLA B*51:01): CD8
6 | SPRDAWIVL (listed as Human cytomegalovirus) [SEQ ID NO: 26] | Positive | 68.2% | 15/22 | 20.0% | CD8 | Tetramer staining ([1]; Tested HLA B*07:02): positive; ELISpot response rate (12 d stim.) ([2]; Tested HLA B*07:02): 68.2; ELISpot response rate (ex vivo) ([3]; Tested HLA B*07:02): 20.0; Intracellular staining ([4]; Tested HLA B*07:02): CD8
7 | ITEIALDRY (listed as Human cytomegalovirus) [SEQ ID NO: 54] | Positive | 58.3% | 14/24 | 14.3% | CD8 | Tetramer staining ([1]; Tested HLA A*01:01): positive; ELISpot response rate (12 d stim.) ([2]; Tested HLA A*01:01): 58.3; ELISpot response rate (ex vivo) ([3]; Tested HLA A*01:01): 14.3; Intracellular staining ([4]; Tested HLA A*01:01): CD8
8 | LPHERHREL (listed as Human cytomegalovirus) [SEQ ID NO: 100] | positive | – | 20/22 and 3/12 | 85.7% | CD8 | Tetramer staining ([1]; Tested HLA B*08:01): positive; ELISpot response rate (12 d stim.) ([2]; Tested HLA B*08:01): 90.9; Binding to more than one HLA-I allotype [2]: potentially able to bind to more than one HLA-I allotype; ELISpot response rate (ex vivo) ([3]; Tested HLA B*08:01): 85.7; Intracellular staining ([4]; Tested HLA B*08:01): CD8
9 | FLDENFKQL (listed as Human cytomegalovirus) [SEQ ID NO: 5] | Negative | 47.6% | 10/21 | 37.5% | CD4 | –
10 | LPLKMLNI (listed as Human cytomegalovirus) [SEQ ID NO: 87] | Positive | 80.0% | 12/15 | 87.5% | CD8 | Tetramer staining ([1]; Tested HLA B*51:01): positive; ELISpot response rate (12 d stim.) ([2]; Tested HLA B*51:01): 80.0; ELISpot response rate (ex vivo) ([3]; Tested HLA B*51:01): 87.5; Intracellular staining ([4]; Tested HLA B*51:01): CD8
11 | RVKNRPIYR (listed as Human cytomegalovirus) [SEQ ID NO: 68] | Positive | 60.9% | 14/23 | 33.3% | CD8 | Tetramer staining ([1]; Tested HLA A*03:01): positive; ELISpot response rate (12 d stim.) ([2]; Tested HLA A*03:01): 60.9; ELISpot response rate (ex vivo) ([3]; Tested HLA A*03:01): 33.3; Intracellular staining ([4]; Tested HLA A*03:01): CD8
12 | GLFAVENFL (listed as Human cytomegalovirus) [SEQ ID NO: 4] | – | 53.9% | 7/13 | 0.0% | CD4 | actual HLA restriction (HLA): Class II; ELISpot response rate (12 d stim.) ([2]; Tested HLA A*02:01): 53.9; ELISpot response rate (ex vivo) ([3]; Tested HLA A*02:01): 0.0; Intracellular staining ([4]; Tested HLA A*02:01): CD4
13 | NLVPMVATV (listed as Human cytomegalovirus) [SEQ ID NO: 101] | – | – | – | – | – | Tetramer staining ([1]; Tested HLA A*02:01): positive; ELISpot response rate (12 d stim.) ([2]; Tested HLA A*02:01): 75.0; ELISpot response rate (ex vivo) ([3]; Tested HLA A*02:01): 100.0; Intracellular staining ([4]; Tested HLA A*02:01): CD8
14 | YADPFFLKY (listed as Human cytomegalovirus) [SEQ ID NO: 51] | Positive | 100.0% | 15/15 | 90.9% | CD8 | Tetramer staining ([1]; Tested HLA A*01:01): positive; ELISpot response rate (12 d stim.) ([2]; Tested HLA A*01:01): 100.0; ELISpot response rate (ex vivo) ([3]; Tested HLA A*01:01): 90.9; Intracellular staining ([4]; Tested HLA A*01:01): CD8
15 | SPSRDRFVQL (listed as Human cytomegalovirus) [SEQ ID NO: 27] | Positive | 66.7% | 14/21 | 33.3% | Nega- | Tetramer staining ([1]; Tested HLA B*07:02): positive; ELISpot response rate (12 d stim.) ([2]; Tested HLA B*07:02): 66.7; ELISpot response rate (ex vivo) ([3]; Tested HLA B*07:02): 33.3
16 | DARSRIHNV (listed as Human cytomegalovirus) [SEQ ID NO: 89] | Positive | 53.3% | 8/15 | – | CD8 | Tetramer staining ([1]; Tested HLA B*51:01): positive; ELISpot response rate (12 d stim.) ([2]; Tested HLA B*51:01): 53.3; ELISpot response rate (ex vivo) ([3]; Tested HLA B*51:01): 20.0; Intracellular staining ([4]; Tested HLA B*51:01): CD8
